The values that follow come from ChEMBL document CHEMBL4699460, “Integrating DNA-encoded chemical libraries with virtual combinatorial library screening: Optimizing a PARP10 inhibitor” (Bioorg Med Chem Lett, 2020).

The target of test [1] is Protein mono-ADP-ribosyltransferase PARP14 (Homo sapiens) (UniProt Q460N5). Briefly: Inhibition of N-terminal His-GST tagged human PARP14 (1470 to 1801 residues) expressed in baculovirus infected Sf9 cells assessed as reduction in NAD+-dependent ADP ribosylation using histone as substrate at 1 uM incubated for 1 hr in presence of biotinylated NAD+ and activated DNA by chemiluminescence based microplate reader assay relative to control.
Chain of Protein mono-ADP-ribosyltransferase PARP14 (Homo sapiens) (Q460N5 whole entry, the tested form may be a part): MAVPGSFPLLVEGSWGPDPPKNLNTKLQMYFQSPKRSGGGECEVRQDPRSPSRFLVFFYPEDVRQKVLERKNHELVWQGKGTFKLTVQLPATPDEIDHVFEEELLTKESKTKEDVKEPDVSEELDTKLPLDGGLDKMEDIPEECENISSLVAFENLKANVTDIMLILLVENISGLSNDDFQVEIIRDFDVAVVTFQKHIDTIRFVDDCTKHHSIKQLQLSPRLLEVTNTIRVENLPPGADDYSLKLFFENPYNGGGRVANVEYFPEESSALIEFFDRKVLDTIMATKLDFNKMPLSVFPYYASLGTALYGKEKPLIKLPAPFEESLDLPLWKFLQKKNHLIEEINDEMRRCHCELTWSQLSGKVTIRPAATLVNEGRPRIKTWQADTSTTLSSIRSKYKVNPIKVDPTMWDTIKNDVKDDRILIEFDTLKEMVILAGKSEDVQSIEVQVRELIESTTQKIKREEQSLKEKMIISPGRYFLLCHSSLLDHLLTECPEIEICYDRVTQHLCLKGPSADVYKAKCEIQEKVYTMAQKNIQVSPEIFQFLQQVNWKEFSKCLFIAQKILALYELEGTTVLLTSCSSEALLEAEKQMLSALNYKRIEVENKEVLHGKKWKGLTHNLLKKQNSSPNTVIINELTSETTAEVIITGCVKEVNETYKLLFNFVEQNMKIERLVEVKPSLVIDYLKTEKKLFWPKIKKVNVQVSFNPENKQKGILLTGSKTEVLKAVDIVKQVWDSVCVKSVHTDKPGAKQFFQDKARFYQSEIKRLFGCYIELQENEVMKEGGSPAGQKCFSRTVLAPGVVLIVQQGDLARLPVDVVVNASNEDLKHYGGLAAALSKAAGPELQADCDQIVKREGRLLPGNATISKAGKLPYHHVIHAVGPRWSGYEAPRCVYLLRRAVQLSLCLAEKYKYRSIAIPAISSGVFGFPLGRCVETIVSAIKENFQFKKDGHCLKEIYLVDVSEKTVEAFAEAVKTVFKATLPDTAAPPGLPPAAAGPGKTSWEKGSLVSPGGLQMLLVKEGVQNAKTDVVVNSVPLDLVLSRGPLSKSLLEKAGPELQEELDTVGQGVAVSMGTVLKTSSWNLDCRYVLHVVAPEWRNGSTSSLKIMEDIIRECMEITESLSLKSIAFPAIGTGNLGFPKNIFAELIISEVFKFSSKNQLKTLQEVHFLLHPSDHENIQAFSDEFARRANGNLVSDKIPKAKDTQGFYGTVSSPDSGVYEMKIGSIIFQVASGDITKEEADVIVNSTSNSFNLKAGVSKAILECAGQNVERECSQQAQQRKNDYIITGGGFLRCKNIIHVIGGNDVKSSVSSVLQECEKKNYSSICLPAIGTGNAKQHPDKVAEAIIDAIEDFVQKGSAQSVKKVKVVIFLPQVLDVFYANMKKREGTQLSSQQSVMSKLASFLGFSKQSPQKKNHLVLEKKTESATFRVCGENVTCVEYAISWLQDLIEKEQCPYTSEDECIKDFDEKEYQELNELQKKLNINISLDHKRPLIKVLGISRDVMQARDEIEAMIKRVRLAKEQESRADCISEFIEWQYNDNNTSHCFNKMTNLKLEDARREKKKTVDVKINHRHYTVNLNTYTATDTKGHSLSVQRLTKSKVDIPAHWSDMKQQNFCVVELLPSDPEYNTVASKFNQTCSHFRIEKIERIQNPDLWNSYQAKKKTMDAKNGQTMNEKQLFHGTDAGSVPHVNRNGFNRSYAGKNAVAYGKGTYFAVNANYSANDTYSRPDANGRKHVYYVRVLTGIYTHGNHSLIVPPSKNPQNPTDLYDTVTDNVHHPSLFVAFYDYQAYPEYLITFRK

The target in test [2] is T1, Protein mono-ADP-ribosyltransferase PARP10 (Homo sapiens) (UniProt Q53GL7).
T1 sequence (whole entry): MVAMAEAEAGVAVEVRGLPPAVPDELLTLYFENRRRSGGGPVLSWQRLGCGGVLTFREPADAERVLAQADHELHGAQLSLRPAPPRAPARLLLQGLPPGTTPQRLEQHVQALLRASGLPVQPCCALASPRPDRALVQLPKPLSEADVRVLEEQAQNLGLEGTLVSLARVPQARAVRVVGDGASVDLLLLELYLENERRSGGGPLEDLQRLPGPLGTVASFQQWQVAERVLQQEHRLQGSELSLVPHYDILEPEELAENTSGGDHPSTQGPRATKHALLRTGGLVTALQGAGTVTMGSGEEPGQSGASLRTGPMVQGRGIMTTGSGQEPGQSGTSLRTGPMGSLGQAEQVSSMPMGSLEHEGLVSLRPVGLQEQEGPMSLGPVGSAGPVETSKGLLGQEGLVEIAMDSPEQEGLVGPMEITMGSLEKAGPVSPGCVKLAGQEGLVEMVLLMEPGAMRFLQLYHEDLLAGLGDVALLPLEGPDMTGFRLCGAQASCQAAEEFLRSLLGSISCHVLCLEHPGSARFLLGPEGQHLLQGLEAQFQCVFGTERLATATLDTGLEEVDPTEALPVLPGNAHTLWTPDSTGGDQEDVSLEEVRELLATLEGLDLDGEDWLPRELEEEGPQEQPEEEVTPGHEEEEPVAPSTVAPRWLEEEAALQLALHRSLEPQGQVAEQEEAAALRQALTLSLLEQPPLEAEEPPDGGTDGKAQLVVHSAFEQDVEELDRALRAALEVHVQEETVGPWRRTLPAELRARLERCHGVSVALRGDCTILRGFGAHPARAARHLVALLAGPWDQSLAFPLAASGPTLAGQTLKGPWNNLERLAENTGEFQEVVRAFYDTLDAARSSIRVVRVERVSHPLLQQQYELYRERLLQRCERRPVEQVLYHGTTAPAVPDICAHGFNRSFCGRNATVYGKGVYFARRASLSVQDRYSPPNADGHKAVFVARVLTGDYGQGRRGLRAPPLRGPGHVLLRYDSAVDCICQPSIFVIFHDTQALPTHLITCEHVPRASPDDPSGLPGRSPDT
Briefly: Inhibition of N-terminal FLAG-tagged and C-terminal strep-tagged human PARP10 (805 to 1025 residues) expressed in baculovirus infected Sf9 cells assessed as reduction in NAD+-dependent ADP ribosylation using histone as substrate at 10 uM incubated for 1 hr in presence of biotinylated NAD+ and activated DNA by chemiluminescence based microplate reader assay relative to control.

For test [3], the target named is T1, Protein mono-ADP-ribosyltransferase PARP10 (Homo sapiens). Briefly: Inhibition of N-terminal FLAG-tagged and C-terminal strep-tagged human PARP10 (805 to 1025 residues) expressed in baculovirus infected Sf9 cells assessed as reduction in NAD+-dependent ADP ribosylation using histone as substrate at 1 uM incubated for 1 hr in presence of biotinylated NAD+ and activated DNA by chemiluminescence based microplate reader assay.

The target of test [4] is Protein mono-ADP-ribosyltransferase PARP14 (Homo sapiens) (UniProt Q460N5). As to the kind of experiment: Inhibition of N-terminal His-GST tagged human PARP14 (1470 to 1801 residues) expressed in baculovirus infected Sf9 cells assessed as reduction in NAD+-dependent ADP ribosylation using histone as substrate at 10 uM incubated for 1 hr in presence of biotinylated NAD+ and activated DNA by chemiluminescence based microplate reader assay relative to control.

For `CC1(CNC(=O)COc2cccc3c2CCCC3=O)CCN(C(=O)CCc2nc3ccccc3[nH]c2=O)CC1`, the inhibition – broadly, the change of the read-out against control, counted positive when it falls – came out at 21% in test [1], 90% in test [2] and 25% in test [3].

Turning to `CNC(=O)[C@H](CNC(=O)CCc1nc2ccccc2[nH]c1=O)NC(=O)c1ccc2c(c1)CCCC2=O`, the inhibition in test [4] is less than 25%.
